These results are taken from paper PMC2593902, “Regulation of cyclic AMP response-element binding-protein (CREB) by Gq/11-protein-coupled receptors in human SH-SY5Y neuroblastoma cells” (Biochemical Pharmacology, 2008).

In this experiment the target is T1, M3 muscarinic acetylcholine (mACh) receptor (Homo sapiens, UniProt P20309).
T1 construct: gene CHRM3
Nature of the experiment: Fura-2 Ca2+ mobilization in SH-SY5Y cells endogenously expressing the receptor (also Ins([…])P3 and phospho-CREB). It counts as cell-based. A general note: Calcium assays in cells follow changes in intracellular calcium, usually with a dye or a luminescent sensor.

pEC50: −log10 of the molar value.

T1 sequence (P20309 whole entry): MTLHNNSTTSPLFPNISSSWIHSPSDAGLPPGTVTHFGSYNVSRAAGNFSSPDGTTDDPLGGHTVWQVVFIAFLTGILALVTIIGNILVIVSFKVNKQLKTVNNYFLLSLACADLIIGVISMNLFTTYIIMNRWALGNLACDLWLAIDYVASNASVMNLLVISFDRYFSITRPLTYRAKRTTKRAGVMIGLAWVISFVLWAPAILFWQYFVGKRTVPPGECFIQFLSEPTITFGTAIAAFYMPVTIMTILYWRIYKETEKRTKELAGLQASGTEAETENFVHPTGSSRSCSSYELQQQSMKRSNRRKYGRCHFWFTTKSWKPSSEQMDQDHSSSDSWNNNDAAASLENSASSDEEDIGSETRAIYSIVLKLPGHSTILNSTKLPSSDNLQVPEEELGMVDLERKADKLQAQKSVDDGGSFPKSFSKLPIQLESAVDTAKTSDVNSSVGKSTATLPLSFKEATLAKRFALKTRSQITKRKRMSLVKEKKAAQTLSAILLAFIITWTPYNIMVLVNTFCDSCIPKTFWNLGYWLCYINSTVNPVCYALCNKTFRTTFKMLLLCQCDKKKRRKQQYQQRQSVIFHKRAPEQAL

As for `CC(=O)OC(C)C[N+](C)(C)C` (stereo not shown) [MCh, methacholine], the pEC50 (in general, the EC50 on a negative log10 scale, so that one unit is a factor of ten) was 6.10.
